Test [1] concerns the target Muscarinic acetylcholine receptor M3 (Homo sapiens, UniProt P20309).
Test [2] concerns the target Neuronal acetylcholine receptor subunit alpha-4 (Homo sapiens, UniProt P43681).
The target in test [3] is T1, Cannabinoid receptor 1 (Homo sapiens, UniProt P21554).
For test [4], the target named is D(1A) dopamine receptor (Homo sapiens, UniProt P21728). The test is classed as functional, cell-based.
In test [5] the target is 5-hydroxytryptamine receptor 2A (Homo sapiens, UniProt P28223). In kind it is functional, cell-based.
Sequence of 5-hydroxytryptamine receptor 2A (P28223 whole entry): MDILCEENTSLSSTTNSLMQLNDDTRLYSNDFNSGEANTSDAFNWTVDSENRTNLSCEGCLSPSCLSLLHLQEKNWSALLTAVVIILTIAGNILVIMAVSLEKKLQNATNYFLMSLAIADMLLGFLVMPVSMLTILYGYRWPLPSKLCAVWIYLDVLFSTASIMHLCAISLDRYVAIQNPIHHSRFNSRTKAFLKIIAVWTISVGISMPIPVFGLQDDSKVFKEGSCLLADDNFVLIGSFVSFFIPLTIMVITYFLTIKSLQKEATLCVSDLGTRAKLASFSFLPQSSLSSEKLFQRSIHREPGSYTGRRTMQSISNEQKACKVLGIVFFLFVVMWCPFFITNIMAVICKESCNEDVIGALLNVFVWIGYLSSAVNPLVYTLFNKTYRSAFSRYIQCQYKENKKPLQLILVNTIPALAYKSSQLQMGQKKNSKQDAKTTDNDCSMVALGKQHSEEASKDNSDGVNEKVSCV
Test [6] has as its target Motilin receptor (Homo sapiens, UniProt O43193).
Test [7] concerns the target T2, Progesterone receptor (Homo sapiens, UniProt P06401).
T2 sequence (P06401 whole entry): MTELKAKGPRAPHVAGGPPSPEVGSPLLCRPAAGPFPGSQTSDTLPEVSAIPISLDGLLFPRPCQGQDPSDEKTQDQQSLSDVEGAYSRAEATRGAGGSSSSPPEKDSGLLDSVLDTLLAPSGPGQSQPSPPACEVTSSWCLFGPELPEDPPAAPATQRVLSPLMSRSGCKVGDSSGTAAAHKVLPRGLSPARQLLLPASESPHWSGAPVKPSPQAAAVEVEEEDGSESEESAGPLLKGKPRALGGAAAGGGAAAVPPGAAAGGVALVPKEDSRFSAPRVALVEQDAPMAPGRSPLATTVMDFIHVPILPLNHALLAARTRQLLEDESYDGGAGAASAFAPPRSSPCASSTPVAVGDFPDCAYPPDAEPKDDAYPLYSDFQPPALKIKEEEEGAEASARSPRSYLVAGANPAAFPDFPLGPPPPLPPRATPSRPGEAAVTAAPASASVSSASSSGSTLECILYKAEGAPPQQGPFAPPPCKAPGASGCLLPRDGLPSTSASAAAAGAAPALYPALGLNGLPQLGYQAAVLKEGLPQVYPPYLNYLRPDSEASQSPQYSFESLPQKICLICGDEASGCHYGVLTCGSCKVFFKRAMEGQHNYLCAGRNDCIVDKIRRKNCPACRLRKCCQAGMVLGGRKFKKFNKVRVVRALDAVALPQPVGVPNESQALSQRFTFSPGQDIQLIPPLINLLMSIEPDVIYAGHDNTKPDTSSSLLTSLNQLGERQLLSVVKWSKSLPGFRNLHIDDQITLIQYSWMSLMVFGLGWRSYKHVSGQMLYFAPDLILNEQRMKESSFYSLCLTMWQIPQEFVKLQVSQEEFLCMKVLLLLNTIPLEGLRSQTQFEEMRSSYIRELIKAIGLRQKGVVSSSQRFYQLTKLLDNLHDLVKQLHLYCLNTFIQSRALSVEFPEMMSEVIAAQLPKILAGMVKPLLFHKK
The test is classed as functional.

Test [8] deals with T3, Amine oxidase [flavin-containing] A (Homo sapiens, UniProt P21397).
T3 sequence (P21397 whole entry): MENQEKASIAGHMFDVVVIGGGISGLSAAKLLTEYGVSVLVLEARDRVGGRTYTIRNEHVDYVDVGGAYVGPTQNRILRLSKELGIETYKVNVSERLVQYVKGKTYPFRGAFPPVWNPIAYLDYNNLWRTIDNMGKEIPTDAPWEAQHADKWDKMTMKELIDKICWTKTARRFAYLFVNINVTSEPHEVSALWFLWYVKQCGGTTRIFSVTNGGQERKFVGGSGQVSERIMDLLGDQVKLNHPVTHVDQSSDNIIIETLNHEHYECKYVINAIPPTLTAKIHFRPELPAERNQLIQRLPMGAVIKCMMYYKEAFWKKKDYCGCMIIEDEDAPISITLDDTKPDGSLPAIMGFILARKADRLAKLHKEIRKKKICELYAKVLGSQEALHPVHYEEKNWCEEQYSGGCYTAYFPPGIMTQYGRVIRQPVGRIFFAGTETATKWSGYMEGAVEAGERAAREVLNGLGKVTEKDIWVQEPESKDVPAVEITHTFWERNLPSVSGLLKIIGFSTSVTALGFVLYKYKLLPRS
The test is classed as functional.

Test [9] addresses D(3) dopamine receptor (Homo sapiens, UniProt P35462).
In test [10] the target is Histamine H3 receptor (Homo sapiens, UniProt Q9Y5N1).
Sequence of Histamine H3 receptor (Q9Y5N1 whole entry): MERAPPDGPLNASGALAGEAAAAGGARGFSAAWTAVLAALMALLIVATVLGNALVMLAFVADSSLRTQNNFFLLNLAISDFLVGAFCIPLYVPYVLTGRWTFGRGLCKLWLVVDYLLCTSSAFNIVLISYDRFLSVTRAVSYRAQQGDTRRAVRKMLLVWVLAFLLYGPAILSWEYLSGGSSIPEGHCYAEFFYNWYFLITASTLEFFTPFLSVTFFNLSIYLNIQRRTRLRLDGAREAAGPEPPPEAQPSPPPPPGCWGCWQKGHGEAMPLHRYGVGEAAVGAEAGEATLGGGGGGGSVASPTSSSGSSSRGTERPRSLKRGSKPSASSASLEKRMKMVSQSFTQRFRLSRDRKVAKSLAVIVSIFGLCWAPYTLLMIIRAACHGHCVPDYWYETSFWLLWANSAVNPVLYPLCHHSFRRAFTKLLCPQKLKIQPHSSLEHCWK
Test [11] concerns the target Histamine H1 receptor (Homo sapiens, UniProt P35367).
The target of test [12] is T1, Cannabinoid receptor 1. In kind it is functional, cell-based.
Test [13] addresses Mu-type opioid receptor (Homo sapiens, UniProt P35372).
The target in test [14] is Prostaglandin G/H synthase 1 (Homo sapiens, UniProt P23219). In kind it is functional.
Sequence of Prostaglandin G/H synthase 1 (P23219 whole entry): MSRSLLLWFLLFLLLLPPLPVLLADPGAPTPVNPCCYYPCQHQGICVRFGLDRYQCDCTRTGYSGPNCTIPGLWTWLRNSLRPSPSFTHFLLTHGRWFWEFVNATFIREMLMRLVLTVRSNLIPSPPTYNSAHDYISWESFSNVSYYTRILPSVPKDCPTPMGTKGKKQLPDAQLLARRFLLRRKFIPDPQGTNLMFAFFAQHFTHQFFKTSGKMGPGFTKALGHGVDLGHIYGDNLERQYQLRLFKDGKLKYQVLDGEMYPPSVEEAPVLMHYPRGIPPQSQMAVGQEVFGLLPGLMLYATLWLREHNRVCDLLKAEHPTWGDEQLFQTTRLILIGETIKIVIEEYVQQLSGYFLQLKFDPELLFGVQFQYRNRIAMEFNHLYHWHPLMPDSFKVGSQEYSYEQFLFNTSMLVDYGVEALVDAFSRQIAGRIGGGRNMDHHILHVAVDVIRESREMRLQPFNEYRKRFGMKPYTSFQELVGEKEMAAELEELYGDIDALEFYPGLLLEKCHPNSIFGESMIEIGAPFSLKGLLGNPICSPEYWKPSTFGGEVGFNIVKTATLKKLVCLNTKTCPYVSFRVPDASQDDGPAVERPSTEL
Also: assay procedure not described here.

Sequence of Neuronal acetylcholine receptor subunit alpha-4 (P43681 whole entry): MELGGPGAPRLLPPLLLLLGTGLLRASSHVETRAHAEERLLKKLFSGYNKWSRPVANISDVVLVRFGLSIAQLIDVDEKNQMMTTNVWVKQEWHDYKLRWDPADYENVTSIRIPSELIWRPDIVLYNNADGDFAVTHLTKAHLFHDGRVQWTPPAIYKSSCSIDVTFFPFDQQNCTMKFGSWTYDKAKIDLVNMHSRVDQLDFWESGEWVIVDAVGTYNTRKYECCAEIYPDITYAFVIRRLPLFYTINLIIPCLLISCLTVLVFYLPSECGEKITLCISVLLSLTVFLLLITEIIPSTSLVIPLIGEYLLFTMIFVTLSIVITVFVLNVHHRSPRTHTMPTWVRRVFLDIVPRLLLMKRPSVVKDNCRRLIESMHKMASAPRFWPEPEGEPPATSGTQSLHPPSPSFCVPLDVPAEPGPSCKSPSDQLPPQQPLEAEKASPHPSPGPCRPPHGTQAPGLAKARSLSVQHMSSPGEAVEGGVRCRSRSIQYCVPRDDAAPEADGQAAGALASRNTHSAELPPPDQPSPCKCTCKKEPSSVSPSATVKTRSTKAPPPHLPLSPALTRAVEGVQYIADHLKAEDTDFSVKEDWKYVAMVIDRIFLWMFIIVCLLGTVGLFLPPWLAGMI
Sequence of Histamine H1 receptor (P35367 whole entry): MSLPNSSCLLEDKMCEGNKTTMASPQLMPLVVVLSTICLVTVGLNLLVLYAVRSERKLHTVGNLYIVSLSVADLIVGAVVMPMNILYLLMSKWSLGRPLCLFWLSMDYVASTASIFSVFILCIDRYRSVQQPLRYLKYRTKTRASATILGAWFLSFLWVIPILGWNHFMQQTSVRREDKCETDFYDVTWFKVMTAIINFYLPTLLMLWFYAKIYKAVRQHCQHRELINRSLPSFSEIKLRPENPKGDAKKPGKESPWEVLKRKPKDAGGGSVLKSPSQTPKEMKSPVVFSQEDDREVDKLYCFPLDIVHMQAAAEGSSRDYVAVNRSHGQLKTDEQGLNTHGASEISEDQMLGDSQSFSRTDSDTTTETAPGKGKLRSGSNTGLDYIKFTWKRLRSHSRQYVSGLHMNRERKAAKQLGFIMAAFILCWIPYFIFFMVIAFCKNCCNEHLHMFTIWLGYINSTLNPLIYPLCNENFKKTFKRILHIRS
T1 sequence (P21554 whole entry): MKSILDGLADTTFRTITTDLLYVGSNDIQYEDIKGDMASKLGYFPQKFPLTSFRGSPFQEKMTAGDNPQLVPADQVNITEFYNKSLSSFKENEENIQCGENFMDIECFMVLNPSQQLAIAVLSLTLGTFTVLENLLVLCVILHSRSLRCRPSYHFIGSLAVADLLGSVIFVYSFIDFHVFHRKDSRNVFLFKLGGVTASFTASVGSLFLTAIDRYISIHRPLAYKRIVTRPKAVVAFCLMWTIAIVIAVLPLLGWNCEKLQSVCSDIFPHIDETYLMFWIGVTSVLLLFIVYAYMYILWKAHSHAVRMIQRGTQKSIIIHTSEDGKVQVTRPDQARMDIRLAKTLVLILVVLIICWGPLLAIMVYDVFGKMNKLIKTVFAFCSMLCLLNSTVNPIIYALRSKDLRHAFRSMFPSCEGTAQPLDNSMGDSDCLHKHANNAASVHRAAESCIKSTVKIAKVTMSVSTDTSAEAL
Sequence of D(3) dopamine receptor (P35462 whole entry): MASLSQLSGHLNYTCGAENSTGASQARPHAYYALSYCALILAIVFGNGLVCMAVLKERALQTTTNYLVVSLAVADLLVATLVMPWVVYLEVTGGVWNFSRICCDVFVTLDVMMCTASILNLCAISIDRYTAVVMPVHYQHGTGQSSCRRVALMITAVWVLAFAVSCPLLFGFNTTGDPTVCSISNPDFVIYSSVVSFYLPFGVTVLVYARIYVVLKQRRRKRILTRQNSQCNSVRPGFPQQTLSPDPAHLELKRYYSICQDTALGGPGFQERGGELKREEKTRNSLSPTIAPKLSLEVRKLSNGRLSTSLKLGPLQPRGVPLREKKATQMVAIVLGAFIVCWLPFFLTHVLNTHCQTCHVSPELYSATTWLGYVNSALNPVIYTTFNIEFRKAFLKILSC
Sequence of Muscarinic acetylcholine receptor M3 (P20309 whole entry): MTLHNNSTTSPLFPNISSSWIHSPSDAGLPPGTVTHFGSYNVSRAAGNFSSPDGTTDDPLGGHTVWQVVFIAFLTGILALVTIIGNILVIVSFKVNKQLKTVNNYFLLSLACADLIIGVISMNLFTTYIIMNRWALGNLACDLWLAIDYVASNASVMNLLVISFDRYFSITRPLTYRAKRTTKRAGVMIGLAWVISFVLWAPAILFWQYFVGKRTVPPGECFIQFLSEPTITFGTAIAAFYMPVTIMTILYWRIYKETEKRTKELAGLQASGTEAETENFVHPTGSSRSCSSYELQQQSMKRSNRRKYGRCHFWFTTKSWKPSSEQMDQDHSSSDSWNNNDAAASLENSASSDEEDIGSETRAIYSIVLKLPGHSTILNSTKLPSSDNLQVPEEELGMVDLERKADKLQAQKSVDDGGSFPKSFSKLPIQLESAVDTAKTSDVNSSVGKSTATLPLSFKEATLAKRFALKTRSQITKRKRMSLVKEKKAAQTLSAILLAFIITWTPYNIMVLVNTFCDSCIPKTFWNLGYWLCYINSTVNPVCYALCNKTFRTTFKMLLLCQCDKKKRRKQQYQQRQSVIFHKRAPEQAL
Sequence of Motilin receptor (O43193 whole entry): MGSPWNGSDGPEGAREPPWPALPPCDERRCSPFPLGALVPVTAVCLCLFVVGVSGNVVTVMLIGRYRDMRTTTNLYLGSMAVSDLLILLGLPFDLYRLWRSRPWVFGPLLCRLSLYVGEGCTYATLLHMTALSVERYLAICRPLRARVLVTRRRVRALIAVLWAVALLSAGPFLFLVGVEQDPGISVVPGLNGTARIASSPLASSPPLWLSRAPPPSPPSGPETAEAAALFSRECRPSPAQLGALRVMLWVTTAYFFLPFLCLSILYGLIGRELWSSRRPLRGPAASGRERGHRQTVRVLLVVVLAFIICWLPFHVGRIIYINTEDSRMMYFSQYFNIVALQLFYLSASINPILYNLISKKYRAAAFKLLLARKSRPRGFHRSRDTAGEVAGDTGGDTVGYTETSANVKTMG
Sequence of D(1A) dopamine receptor (P21728 whole entry): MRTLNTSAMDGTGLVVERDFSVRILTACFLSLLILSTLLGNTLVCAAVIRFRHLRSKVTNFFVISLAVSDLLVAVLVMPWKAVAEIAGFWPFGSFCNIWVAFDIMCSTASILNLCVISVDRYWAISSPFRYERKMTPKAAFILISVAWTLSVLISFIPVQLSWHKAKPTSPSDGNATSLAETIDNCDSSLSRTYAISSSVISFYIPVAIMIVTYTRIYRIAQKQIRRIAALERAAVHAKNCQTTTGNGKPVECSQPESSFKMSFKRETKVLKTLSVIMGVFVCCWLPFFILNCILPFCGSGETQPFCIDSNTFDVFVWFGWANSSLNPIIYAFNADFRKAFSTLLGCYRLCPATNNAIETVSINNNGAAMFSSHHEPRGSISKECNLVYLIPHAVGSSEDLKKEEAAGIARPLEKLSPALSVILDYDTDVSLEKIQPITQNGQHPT

Turning to `O=C1c2cccc3c2[C@H](CCC3)CN1[C@@H]1CN2CCC1CC2` [PALONOSETRON], the AC50 (as a rule, the concentration giving half of the maximal activity seen) in [1] is 28 µM; in test [2], 38.5 µM; in [3], above 30 µM; in test [4], above 30 µM; in [5], above 30 µM; in [6], above 30 µM. In addition, the AC50 in test [7] was above 30 µM; in [8], above 30 µM; in [9], 29 µM; in test [10], above 30 µM.

For `C[N+]1(C)CCC(=C(c2ccccc2)c2ccccc2)CC1`, the AC50 in test [1] is 0.19 µM; in test [2], 16.2 µM; in test [3], above 10 µM; in test [4] it was above 10 µM; in [11] it was 2.9 µM; in [5], above 10 µM. The AC50 in [6] is above 30 µM; in test [7] it was above 10 µM; in test [8], above 10 µM; in test [9], above 30 µM.

On to `C[C@]12C=CC(=O)C=C1CC[C@@H]1[C@@H]2CC[C@]2(C)OC(=O)CC[C@@H]12` [TESTOLACTONE], for which the AC50 in test [1] was above 30 µM; in test [2] it was above 10 µM; in test [12], above 30 µM; in test [3], above 10 µM; in [4], above 10 µM; in [11], above 10 µM. The AC50 was above 30 µM in test [5]; above 10 µM in [6]; above 10 µM in test [7]; above 10 µM in [8]; above 30 µM in [9].

With `COc1ccc([C@@H]2CC(=O)c3c(O)cc(O)cc3O2)cc1O` [HESPERETIN], the AC50 in test [1] was above 30 µM; in [2] it was above 10 µM; in test [3], above 10 µM; in test [4], above 30 µM; in test [11], above 10 µM; in [5], above 10 µM. Also, the AC50 was above 10 µM in test [6], above 10 µM in test [7], above 10 µM in test [8] and above 30 µM in test [9].

Regarding `C=C1c2cccc(O)c2C(=O)C2=C(O)[C@]3(O)C(=O)C(C(N)=O)=C(O)[C@@H](N(C)C)[C@@H]3[C@@H](O)[C@H]12` [METHACYCLINE], the AC50 in test [1] was above 30 µM; in test [2], above 30 µM; in test [3], above 10 µM; in test [4], above 10 µM; in test [11], above 10 µM; in test [5], above 10 µM. Moreover, the AC50 was above 30 µM in [6], above 30 µM in test [7], above 10 µM in test [8] and above 30 µM in test [9].

For the compound `O=S1(=O)CCN(CN2CCS(=O)(=O)NC2)CN1` [TAUROLIDINE], the AC50 is above 30 µM in test [1]; above 30 µM in [2]; above 30 µM in test [12]; above 30 µM in test [4]; 4.6 µM in [11]; above 30 µM in test [5]. The AC50 was above 30 µM in [13]; above 30 µM in test [7]; above 30 µM in [14]; above 30 µM in test [8]; 27 µM in test [9].

For the compound `C/C=C(/C(=C/C)c1ccc(O)cc1)c1ccc(O)cc1` [DIENESTROL], the AC50 in test [1] was above 30 µM; in test [2], above 10 µM; in [3] it was above 10 µM; in [4] it was above 10 µM; in test [11], above 10 µM; in [5] it was above 10 µM. The AC50 in test [6] is above 10 µM; in [7] it was above 30 µM; in [8] it was above 10 µM; in [9], above 30 µM.

As to `Cc1ccccc1-n1c(CF)nc2ccc(N)cc2c1=O` [AFLOQUALONE], the AC50 in test [1] was above 30 µM; in [2], above 30 µM; in test [3] it was above 10 µM; in test [4], above 30 µM; in [11], above 10 µM; in [5], above 10 µM. The AC50 in test [6] was above 30 µM; in [7], above 30 µM; in test [8] it was above 10 µM; in test [9], above 30 µM; in test [10] it was above 30 µM.

The values above are taken from ChEMBL document CHEMBL5291721, “A preclinical secondary pharmacology resource illuminates target-adverse drug reaction associations of marketed drugs” (Nat Commun, 2023).
